Here are results for 2 compounds from patent US20260248811A1, “COMPOSITIONS FOR TREATING AN INDIVIDUAL FOR IMPROVEMENT OF COGNITIVE FUNCTIONS” (priority 2023, published 2026).

The nature of data set [1]: Total and free testosterone in blood plasma 15 minutes after sublingual intake of the androgen(s). The format is in vivo, human. The following applies: measured not calculated, 5 mg T or 5 mg T + 5 mg DHT. Here is the method:
Testosterone (T) vs. testosterone and dihydrotestosterone (T+DHT) The first example concerns two male heterosexual patients. Two alternative forms of testosterone administration were considered for a treatment. The first treatment involved taking 5 mg sublingual testosterone (T) (solution consisting of alcohol, denaturalized water, testosterone and cyclodextrins). The second consisted of simultaneously taking 5 mg sublingual testosterone and 5 mg sublingual dihydrotestosterone (DHT) (solution consisting of alcohol, denaturalized water, DHT and cyclodextrins). The testosterone and DHT solutions were prepared by a pharmacist on the request of a general practitioner. Subsequently, the changes in total testosterone and free testosterone in blood plasma were examined, 15 minutes after intake of the androgen(s).
The table below describes the effects of the different treatments on ‘total testosterone’ and ‘free testosterone (i.e. measured, not calculated)’ for both patients:
This is consistent with the assumption that SHBG becomes more saturated as a result of the binding of DHT to SHBG. This means that the ingested testosterone can no longer bind to SHBG, and consequently there will be a greater increase in unbound testosterone (i.e. free testosterone). […] Total testosterone and free testosterone were measured 15 minutes after the administration of T and (T&DHT). dysfunction/disorder

The conditions of data set [2]: sublingually with cyclodextrins (women about 0.1-2 mg; men about 0.5-20 mg); cited from earlier work.
For data set [3] the following is noted: intranasal administration; cited from earlier work.

For the compound `C[C@]12CC[C@H]3[C@@H](CCC4=CC(=O)CC[C@@]43C)[C@@H]1CC[C@@H]2O` [T, 17-β-hydroxyandrost-4-en-3-one], the “Free T” value is on record as 440 pml/L in data set [1] (Patient 1, blood plasma) and 1030 pml/L in data set [1] (Patient 2, blood plasma). Moreover, in data set [2], the “Time to pharmacological peak in testosterone and free testosterone” value was “about 15 minutes”.

In the case of `CC[C@H](C)[C@@H]1NC(=O)[C@H](Cc2ccc(O)cc2)NC(=O)[C@@H](N)CSSC[C@@H](C(=O)N2CCC[C@H]2C(=O)N[C@@H](CC(C)C)C(=O)NCC(N)=O)NC(=O)[C@H](CC(N)=O)NC(=O)[C@H](CCC(N)=O)NC1=O` [oxytocin], in data set [3], the “Return of oxytocin levels to baseline” value is “approximately 90 minutes” and the “T-max of oxytocin levels in the blood circulation” value is reported as “approximately 15 minutes”.
